Active and inactive are the calls of the source. The rule behind the calls is not given here.
What was measured:
[1] = target: T1, Serine/threonine-protein kinase 3 (Homo sapiens) (UniProt Q13188); test: Inhibition of MST2 Lys2 labeling site harbouring DIKAGNILLNTEGHAK in human Huh-7 cell lysate at 1 uM by KiNativ Profiling analysis relative to control; assay type: subcellular
T1 sequence (whole entry): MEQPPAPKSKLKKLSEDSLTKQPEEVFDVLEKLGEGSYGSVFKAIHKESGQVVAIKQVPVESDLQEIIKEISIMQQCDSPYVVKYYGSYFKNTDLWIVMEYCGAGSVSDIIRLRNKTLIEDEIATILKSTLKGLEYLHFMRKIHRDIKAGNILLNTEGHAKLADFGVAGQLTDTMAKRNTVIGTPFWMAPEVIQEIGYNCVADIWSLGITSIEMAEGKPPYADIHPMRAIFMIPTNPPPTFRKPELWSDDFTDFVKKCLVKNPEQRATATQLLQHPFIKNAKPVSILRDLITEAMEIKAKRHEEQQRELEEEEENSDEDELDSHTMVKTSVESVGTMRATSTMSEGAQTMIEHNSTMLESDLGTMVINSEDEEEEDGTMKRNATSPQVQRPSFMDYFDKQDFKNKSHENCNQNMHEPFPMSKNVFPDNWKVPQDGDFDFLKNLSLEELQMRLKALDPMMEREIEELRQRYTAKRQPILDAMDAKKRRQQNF

[2] = target: Peripheral plasma membrane protein CASK (Homo sapiens) (UniProt O14936); test: Inhibition of CASK Lys1 labeling site in human A-375 cells at 0.05 uM by KiNativ Profiling analysis relative to control
[3] = target: cGMP-dependent protein kinase 2 (Homo sapiens) (UniProt Q13237); test: Inhibition of PRKG2 (unknown origin) at 10 uM by Ambit Kinomescan binding assay
[4] = target: Tyrosine-protein kinase CSK (Homo sapiens, UniProt P41240); test: Inhibition of CSK ACT labeling site harbouring VSDFGLTKEASSTQDTGK in human Huh-7 cells at 10 uM by KiNativ Profiling analysis relative to control; assay type: cell-based
[5] = target: Serine/threonine-protein kinase SIK2 (Homo sapiens) (UniProt Q9H0K1); test: Inhibition of SIK2 (unknown origin) at 10 uM by Ambit Kinomescan binding assay
[6] = target: Tyrosine-protein kinase ABL1 (Homo sapiens, UniProt P00519); test: Inhibition of ABL ACT labeling site in human A-375 cells at 0.05 uM by KiNativ Profiling analysis relative to control; assay type: cell-based
[7] = target: T2, Dual specificity mitogen-activated protein kinase kinase 6 (Homo sapiens) (UniProt P52564); test: Inhibition of MAP2K6 K1 labeling site in human Huh-7 cells at 10 uM by KiNativ Profiling analysis relative to control; assay type: cell-based
T2 sequence (whole entry): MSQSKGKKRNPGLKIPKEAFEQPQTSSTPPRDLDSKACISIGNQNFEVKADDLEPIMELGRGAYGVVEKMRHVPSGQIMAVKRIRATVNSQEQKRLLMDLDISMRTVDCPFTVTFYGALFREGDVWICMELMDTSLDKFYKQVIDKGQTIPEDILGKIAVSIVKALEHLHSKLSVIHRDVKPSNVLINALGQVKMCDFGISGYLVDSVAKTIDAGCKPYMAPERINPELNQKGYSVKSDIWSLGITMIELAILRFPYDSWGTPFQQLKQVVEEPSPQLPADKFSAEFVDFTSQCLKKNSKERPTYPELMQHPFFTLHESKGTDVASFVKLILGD

[8] = target: Ribosomal protein S6 kinase alpha-3 (Homo sapiens) (UniProt P51812); test: Inhibition of RSK2 Domain 2 K1 labeling site in human Huh-7 cells at 10 uM by KiNativ Profiling analysis relative to control; assay type: cell-based
[9] = target: PKC alpha and beta-2 (Homo sapiens) (UniProt P17252+P05771); test: Inhibition of PKCalpha/beta K2 labeling site in human Huh-7 cells at 1 uM by KiNativ Profiling analysis relative to control; assay type: cell-based
[10] = target: Calcium/calmodulin-dependent protein kinase type II subunit gamma (Homo sapiens) (UniProt Q13555); test: Inhibition of CaMK2g Lys1 labeling site harbouring TSTQEYAAKIINTK in human A-375 cells at 0.05 uM by KiNativ Profiling analysis relative to control; assay type: cell-based
[11] = target: Serine/threonine-protein kinase mTOR (Homo sapiens) (UniProt P42345); test: Inhibition of MTOR (unknown origin) at 1 uM by Ambit Kinomescan binding assay relative to control
[12] = target: Serine/threonine-protein kinase 32C (Homo sapiens) (UniProt Q86UX6); test: Inhibition of YANK3 Lys2 labeling site in human A-375 cells at 0.5 uM by KiNativ Profiling analysis relative to control; assay type: cell-based
[13] = target: T3, Ephrin type-B receptor 4 (Homo sapiens) (UniProt P54760); test: Inhibition of EPHB4 (unknown origin) at 1 uM by Ambit Kinomescan binding assay relative to control
T3 sequence (whole entry): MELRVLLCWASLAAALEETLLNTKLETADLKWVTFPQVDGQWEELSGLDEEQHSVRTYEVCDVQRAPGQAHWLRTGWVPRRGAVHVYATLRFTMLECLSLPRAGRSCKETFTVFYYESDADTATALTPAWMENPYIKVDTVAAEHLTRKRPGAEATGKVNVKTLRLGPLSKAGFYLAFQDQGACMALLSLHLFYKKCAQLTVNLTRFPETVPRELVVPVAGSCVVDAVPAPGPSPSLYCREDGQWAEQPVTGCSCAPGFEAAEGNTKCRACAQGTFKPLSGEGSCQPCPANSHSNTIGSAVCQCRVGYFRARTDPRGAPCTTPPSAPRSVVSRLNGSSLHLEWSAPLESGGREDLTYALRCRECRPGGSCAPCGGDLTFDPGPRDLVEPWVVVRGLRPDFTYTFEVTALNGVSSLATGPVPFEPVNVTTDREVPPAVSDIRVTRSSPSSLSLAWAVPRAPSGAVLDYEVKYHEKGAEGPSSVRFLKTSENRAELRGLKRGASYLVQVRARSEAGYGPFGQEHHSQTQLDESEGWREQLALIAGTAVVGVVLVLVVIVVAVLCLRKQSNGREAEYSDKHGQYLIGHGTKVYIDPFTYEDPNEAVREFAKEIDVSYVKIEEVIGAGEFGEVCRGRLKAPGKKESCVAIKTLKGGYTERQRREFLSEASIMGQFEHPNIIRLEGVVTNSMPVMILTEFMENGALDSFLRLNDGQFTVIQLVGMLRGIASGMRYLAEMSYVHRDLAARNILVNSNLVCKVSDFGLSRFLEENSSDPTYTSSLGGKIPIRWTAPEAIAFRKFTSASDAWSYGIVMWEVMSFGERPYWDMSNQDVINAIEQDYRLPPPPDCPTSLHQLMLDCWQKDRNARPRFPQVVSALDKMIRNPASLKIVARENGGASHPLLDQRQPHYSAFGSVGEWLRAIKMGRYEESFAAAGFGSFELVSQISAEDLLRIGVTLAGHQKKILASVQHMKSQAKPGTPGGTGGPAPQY

Serine/threonine-protein kinase SIK2 (Homo sapiens), sequence (Q9H0K1 whole entry, looked up): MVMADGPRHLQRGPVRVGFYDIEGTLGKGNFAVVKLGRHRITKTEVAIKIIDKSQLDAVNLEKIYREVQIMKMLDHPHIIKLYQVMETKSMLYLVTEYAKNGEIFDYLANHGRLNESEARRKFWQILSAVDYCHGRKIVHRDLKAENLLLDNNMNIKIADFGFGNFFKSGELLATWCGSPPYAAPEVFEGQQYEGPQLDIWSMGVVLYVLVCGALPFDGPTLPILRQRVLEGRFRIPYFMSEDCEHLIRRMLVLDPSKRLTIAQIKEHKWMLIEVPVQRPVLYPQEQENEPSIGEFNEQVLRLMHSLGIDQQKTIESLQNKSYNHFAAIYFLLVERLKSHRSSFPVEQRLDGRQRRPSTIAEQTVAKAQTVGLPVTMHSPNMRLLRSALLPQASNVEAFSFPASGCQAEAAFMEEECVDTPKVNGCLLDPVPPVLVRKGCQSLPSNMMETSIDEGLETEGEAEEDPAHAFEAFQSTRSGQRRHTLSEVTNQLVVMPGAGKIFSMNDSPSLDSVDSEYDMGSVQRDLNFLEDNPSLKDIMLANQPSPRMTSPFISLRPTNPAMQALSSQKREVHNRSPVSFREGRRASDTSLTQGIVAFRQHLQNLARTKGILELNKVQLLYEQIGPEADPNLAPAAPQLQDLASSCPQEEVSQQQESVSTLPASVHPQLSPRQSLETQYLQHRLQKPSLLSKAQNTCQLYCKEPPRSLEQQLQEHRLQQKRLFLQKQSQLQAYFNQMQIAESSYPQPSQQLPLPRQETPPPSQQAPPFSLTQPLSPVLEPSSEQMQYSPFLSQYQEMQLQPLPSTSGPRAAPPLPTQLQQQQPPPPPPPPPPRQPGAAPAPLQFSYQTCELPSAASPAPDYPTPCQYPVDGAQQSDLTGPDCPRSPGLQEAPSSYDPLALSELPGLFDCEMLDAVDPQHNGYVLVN
cGMP-dependent protein kinase 2 (Homo sapiens), sequence (Q13237 whole entry): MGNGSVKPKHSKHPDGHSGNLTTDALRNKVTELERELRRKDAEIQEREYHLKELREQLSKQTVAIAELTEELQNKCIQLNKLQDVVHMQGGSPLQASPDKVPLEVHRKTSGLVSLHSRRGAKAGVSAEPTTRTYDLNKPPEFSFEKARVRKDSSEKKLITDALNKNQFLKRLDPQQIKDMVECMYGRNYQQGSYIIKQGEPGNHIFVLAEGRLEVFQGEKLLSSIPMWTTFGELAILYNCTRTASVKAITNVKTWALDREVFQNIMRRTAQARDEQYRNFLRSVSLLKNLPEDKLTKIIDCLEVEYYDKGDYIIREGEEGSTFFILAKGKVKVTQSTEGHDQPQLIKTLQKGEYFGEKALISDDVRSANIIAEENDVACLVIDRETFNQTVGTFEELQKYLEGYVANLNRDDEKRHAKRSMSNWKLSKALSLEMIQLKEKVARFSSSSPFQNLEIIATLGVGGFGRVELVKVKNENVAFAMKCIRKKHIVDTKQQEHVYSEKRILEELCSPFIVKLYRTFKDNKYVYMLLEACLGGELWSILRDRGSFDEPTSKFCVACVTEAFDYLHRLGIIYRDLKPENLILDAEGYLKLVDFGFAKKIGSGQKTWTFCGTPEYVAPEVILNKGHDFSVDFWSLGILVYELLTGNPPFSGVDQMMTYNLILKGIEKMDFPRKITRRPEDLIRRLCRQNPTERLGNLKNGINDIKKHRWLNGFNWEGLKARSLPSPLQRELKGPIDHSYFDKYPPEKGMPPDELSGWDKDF
Serine/threonine-protein kinase 32C (Homo sapiens), sequence (Q86UX6 whole entry): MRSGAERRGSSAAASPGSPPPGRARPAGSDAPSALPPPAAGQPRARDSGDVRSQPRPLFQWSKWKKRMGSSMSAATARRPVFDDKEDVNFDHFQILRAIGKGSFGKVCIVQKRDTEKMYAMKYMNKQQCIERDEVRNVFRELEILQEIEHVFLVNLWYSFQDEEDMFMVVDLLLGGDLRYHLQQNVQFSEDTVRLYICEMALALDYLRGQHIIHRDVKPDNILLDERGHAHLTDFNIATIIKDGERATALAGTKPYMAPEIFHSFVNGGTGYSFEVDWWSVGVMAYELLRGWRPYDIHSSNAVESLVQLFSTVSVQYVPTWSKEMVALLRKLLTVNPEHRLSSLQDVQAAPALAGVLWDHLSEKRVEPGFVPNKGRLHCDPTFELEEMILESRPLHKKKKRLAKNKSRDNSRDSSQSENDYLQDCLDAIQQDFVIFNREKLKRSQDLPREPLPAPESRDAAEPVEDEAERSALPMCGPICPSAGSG
Tyrosine-protein kinase ABL1, sequence (P00519 whole entry): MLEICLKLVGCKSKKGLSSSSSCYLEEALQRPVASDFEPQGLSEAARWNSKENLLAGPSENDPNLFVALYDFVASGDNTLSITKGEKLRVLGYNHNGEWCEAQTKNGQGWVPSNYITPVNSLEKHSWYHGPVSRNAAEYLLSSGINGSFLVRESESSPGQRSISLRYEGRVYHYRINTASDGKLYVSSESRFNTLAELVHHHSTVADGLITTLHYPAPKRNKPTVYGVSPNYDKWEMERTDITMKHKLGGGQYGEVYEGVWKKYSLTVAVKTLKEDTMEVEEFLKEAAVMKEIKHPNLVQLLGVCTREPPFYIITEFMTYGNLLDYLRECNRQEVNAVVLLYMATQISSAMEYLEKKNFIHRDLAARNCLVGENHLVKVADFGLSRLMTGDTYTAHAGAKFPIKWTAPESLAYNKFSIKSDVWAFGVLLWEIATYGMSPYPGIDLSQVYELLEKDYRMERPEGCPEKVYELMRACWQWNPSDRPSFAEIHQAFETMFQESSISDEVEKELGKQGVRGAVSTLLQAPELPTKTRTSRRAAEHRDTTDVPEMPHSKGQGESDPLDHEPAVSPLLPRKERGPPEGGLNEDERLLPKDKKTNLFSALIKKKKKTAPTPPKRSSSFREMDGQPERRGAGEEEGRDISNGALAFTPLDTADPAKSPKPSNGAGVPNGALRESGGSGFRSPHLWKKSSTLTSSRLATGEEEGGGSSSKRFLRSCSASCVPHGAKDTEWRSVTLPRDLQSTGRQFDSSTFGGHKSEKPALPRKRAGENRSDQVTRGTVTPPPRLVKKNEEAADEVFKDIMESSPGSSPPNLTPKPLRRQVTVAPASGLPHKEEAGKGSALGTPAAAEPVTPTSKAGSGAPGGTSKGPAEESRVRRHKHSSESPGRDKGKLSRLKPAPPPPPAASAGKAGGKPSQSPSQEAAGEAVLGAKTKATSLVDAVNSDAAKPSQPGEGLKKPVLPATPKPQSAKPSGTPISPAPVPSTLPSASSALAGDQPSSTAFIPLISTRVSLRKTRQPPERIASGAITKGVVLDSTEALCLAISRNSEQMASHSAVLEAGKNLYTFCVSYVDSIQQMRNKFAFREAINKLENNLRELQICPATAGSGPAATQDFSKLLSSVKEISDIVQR
Tyrosine-protein kinase CSK, sequence (P41240 2-450 limits assumed): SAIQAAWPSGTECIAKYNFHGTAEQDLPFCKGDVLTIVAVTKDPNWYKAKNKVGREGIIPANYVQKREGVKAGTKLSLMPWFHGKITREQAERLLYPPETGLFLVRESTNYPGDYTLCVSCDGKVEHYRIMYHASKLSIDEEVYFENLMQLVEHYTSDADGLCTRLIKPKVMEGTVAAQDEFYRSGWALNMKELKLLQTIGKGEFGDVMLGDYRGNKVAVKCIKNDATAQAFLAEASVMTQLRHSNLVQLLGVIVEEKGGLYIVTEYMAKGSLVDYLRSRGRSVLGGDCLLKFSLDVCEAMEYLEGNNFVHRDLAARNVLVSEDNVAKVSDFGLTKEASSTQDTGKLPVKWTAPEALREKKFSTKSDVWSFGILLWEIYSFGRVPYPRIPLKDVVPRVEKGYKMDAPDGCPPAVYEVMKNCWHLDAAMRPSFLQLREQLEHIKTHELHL
Calcium/calmodulin-dependent protein kinase type II subunit gamma (Homo sapiens), sequence (Q13555 whole entry): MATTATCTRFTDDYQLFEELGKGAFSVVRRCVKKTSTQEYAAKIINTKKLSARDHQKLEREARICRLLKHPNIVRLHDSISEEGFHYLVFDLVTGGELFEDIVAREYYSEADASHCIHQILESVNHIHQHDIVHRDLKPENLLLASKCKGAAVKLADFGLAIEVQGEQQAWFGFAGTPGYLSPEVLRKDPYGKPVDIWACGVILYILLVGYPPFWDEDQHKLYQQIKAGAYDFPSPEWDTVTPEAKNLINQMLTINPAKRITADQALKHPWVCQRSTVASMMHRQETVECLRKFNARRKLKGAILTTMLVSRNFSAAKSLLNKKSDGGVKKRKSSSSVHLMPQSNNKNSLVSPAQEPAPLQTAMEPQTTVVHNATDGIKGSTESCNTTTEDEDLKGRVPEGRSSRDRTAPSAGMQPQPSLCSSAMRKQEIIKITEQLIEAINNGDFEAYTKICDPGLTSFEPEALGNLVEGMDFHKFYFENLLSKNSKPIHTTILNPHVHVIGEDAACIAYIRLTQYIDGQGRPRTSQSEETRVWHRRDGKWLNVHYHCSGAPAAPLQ
Ribosomal protein S6 kinase alpha-3 (Homo sapiens), sequence (P51812 whole entry, the tested form may be a part): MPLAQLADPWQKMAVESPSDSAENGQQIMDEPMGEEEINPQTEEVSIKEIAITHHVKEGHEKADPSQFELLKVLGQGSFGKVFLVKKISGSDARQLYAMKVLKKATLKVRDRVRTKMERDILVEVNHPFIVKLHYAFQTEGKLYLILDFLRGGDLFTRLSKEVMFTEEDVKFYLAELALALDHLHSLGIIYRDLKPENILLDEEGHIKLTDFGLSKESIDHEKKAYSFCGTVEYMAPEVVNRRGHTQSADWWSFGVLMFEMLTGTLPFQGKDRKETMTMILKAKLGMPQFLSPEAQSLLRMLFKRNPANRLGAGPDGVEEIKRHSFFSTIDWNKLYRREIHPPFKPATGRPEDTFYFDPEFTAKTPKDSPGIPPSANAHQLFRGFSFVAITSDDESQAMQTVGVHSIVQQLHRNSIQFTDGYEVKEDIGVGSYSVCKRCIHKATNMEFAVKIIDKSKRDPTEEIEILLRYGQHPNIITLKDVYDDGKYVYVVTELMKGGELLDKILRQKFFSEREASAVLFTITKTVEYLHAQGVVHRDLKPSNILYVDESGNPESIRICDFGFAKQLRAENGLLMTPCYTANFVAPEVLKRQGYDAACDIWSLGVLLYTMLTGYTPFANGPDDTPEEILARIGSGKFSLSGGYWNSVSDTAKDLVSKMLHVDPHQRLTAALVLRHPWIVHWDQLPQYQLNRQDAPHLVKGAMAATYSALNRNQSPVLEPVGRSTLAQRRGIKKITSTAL

Work on `CNc1cc(Oc2cc(C(=O)Nc3cc(N4CCN(C)CC4)cc(C(F)(F)F)c3)ccc2C)ncn1` yielded an inhibition [1] of 8.2%.

In the case of `CCN1CCN(Cc2ccc(NC(=O)c3ccc(C)c(Oc4ccnc5[nH]ccc45)c3)cc2C(F)(F)F)CC1`, the inhibition [2] is reported as 10.9%, the inhibition [3] is reported as “inactive” and the inhibition [4] is reported as 10.8%. For the same molecule, the inhibition [5] was “inactive”, the inhibition [6] was 88.5% and the inhibition [7] was 5.5%. For the same molecule, the inhibition [8] was “inactive” and the inhibition [9] was 8.8%.

Work on `CCN1CCN(Cc2ccc(NC(=O)c3ccc(C)c(/C=C/c4cnc5[nH]ccc5c4OC)c3)cc2C(F)(F)F)CC1` yielded an inhibition [10] of 26.3%, an inhibition [11] of 100% and an inhibition [12] of 11.5%. The inhibition [13] was 21%.

Reference: ChEMBL document CHEMBL5696442, “Discovery of type II inhibitors of TGFβ-activated kinase 1 (TAK1) and mitogen-activated protein kinase kinase kinase kinase 2 (MAP4K2)” (J Med Chem, 2015)
